Assay results taken from US8367658B2, “Pyrazin-2-yl-pyridin-2-yl-amine and pyrazin-2-yl-pyrimidin-4-yl-amine compounds and their use” (Cancer Research Technology Limited, priority 2007, dated 2013).

Molecular target: T1, CHK1 (Homo sapiens, UniProt O14757)
T1 sequence (O14757 1-476): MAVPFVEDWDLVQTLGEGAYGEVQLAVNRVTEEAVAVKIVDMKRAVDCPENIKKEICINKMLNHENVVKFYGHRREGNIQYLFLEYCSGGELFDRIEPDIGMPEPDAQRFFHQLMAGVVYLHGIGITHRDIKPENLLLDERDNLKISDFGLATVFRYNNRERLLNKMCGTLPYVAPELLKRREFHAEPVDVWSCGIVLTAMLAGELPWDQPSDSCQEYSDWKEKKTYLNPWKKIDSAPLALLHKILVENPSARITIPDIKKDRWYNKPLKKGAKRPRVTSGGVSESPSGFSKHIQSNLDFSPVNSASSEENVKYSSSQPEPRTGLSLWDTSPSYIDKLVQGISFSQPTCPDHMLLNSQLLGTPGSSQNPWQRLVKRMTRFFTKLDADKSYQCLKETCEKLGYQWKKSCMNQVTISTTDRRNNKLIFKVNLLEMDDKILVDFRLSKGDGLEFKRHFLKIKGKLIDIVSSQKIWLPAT
Assay: CHK1 kinase function inhibition assay (DELFIA, phosphorylation of a CDC25C peptide)
Assay type: biochemical
Details: CHK1 1 nM, ATP 30 μM, 30 minutes at room temperature
Procedure: Measurement of Inhibition of CHK1 Kinase Function
CHK1 kinase function was measured in a DELFIA® assay in order to monitor phosphorylation of a CDC25C peptide using a specific phospho antibody.
The reaction mixture was incubated for 30 minutes at room temperature and then stopped by the addition of buffer (125 μL) containing 40 mM EDTA, 0.05% Tween 20, 0.1% BSA in TBS (10× concentrate, Sigma). An aliquot (100 μL) of the stopped reaction mixture was transferred to a black neutravidin-coated plate (Perbio) and incubated for 1 hour on a shaker (Titertek, Flow Laboratories) at room temperature. […] The plates were washed a further four times with wash buffer before the addition of enhancement solution (100 μL/well, PerkinElmer Life Sciences).

SMILES | IC50
N#Cc1cnc(Nc2cc(NC3CCCCC3)c(N)cn2)cn1 [Compound Y-045, 5-(5-Amino-4-(cyclohexylamino)pyridin-2-ylamino)pyrazine-2-carbonitrile] | 1000 to 10000 nM
CN(C)CC(=O)Nc1cnc(Nc2cnc(C#N)cn2)cc1N[C@H]1CCCNC1 [Compound Y-046, (S)—N-(6-(5-Cyanopyrazin-2-ylamino)-4-(piperidin-3-ylamino)pyridin-3-yl)-2-(dimethylamino)acetamide] | 1000 to 10000 nM
N#Cc1cnc(Nc2cc(NCCC(N)c3ccccc3)c(N)cn2)cn1 (stereo not shown) [Compound Y-050, 5-(5-Amino-4-(3-amino-3-phenylpropylamino)pyridin-2-ylamino)pyrazine-2-carbonitrile] | 1000 to 10000 nM
N#Cc1cnc(Nc2cc(NCC3CCCCN3)c(N)cn2)cn1 (stereo not shown) [Compound Y-051, 5-(5-Amino-4-(piperidin-2-ylmethylamino)pyridin-2-ylamino)pyrazine-2-carbonitrile] | 1000 to 10000 nM
N#Cc1cnc(Nc2cc(NCCC[C@H](N)C(=O)Nc3ccccc3)c(N)cn2)cn1 [Compound Y-052, (S)-2-Amino-5-(5-amino-2-(5-cyanopyrazin-2-ylamino)pyridin-4-ylamino)-N-phenylpentanamide] | 1000 to 10000 nM
Cc1ncsc1CCC(=O)Nc1cnc(Nc2cnc(C#N)cn2)cc1NCC1CCCNC1 (stereo not shown) [Compound Y-054, N-(6-(5-Cyanopyrazin-2-ylamino)-4-(piperidin-3-ylmethylamino)pyridin-3-yl)-3-(4-methylthiazol-5-yl)propanamide] | 1000 to 10000 nM
N#Cc1cnc(Nc2cc(NCC3CCCNC3)c(NC(=O)CCN3CCOCC3)cn2)cn1 (stereo not shown) [Compound Y-055, N-(6-(5-Cyanopyrazin-2-ylamino)-4-(piperidin-3-ylmethylamino)pyridin-3-yl)-3-morpholinopropanamide] | 100 to 1000 nM
N#Cc1cnc(Nc2cc(N[C@@H]3CCCNC3)c(-n3cccc3)cn2)cn1 [Compound Y-057, (R)-5-(4-(Piperidin-3-ylamino)-5-(1H-pyrrol-1-yl)pyridin-2-ylamino)pyrazine-2-carbonitrile] | 100 to 1000 nM
N#Cc1cnc(Nc2cc(NCC3CCCNC3)c(-n3ccc(C(=O)O)c3)cn2)cn1 (stereo not shown) [Compound Y-065, 1-(6-(5-Cyanopyrazin-2-ylamino)-4-(piperidin-3-ylmethylamino)pyridin-3-yl)-1H-pyrrole-3-carboxylic acid] | 100 to 1000 nM
N#Cc1cnc(Nc2cc(NCC3CCCNC3)c(-n3ccc(C(=O)NCCO)c3)cn2)cn1 (stereo not shown) [Compound Y-066, 1-(6-(5-Cyanopyrazin-2-ylamino)-4-(piperidin-3-ylmethylamino)pyridin-3-yl)-N-(2-hydroxyethyl)-1H-pyrrole-3-carboxamide] | 100 to 1000 nM
N#Cc1cnc(Nc2cc(OCC3CCOC3)c(NC(=O)CCC3CCNCC3)cn2)cn1 (stereo not shown) [Compound Y-068, N-(6-(5-Cyanopyrazin-2-ylamino)-4-((tetrahydrofuran-3-yl)methoxy)pyridin-3-yl)-3-(piperidin-4-yl)propanamide] | 1000 to 10000 nM
N#Cc1cnc(Nc2cc(OCC3CCOCC3)c(NC(=O)CCC3CCNCC3)cn2)cn1 [Compound Y-069, N-(6-(5-Cyanopyrazin-2-ylamino)-4-((tetrahydro-2H-pyran-4-yl)methoxy)pyridin-3-yl)-3-(piperidin-4-yl)propanamide] | 1000 to 10000 nM
COC(=O)c1cnc(Nc2cnc(C#N)cn2)cc1N(C)C1CCN(C)CC1 [Compound Y-070, Methyl 6-(5-cyanopyrazin-2-ylamino)-4-(methyl(1-methylpiperidin-4-yl)amino)nicotinate] | ≤ 100 nM
COC(=O)c1cnc(Nc2cnc(C#N)cn2)cc1NC1CC2CCCC(C1)N2C (stereo not shown) [Compound Y-071, Methyl 6-(5-cyanopyrazin-2-ylamino)-4-(9-methyl-9-azabicyclo[3.3.1]-nonan-3-ylamino)nicotinate] | 100 to 1000 nM
COC(=O)c1cnc(Nc2cnc(C#N)cn2)cc1NC1CCNCC1 [Compound Y-078, Methyl 6-(5-cyanopyrazin-2-ylamino)-4-(piperidin-4-ylamino)nicotinate] | ≤ 100 nM
CCCN1C2CCC1CC(Nc1cc(Nc3cnc(C#N)cn3)ncc1C(=O)OC)C2 (stereo not shown) [Compound Y-079, Methyl 6-(5-cyanopyrazin-2-ylamino)-4-(8-propyl-8-azabicyclo[3.2.1]octan-3-ylamino)nicotinate] | ≤ 100 nM
COC(=O)c1cnc(Nc2cnc(C#N)cn2)cc1NC1CC2CCC(C1)N2Cc1ccccn1 (stereo not shown) [Compound Y-080, Methyl 6-(5-cyanopyrazin-2-ylamino)-4-(8-(pyridin-2-ylmethyl)-8-azabicyclo[3.2.1]octan-3-ylamino)nicotinate] | ≤ 100 nM
COC(=O)c1cnc(Nc2cnc(C#N)cn2)cc1NCC[C@H]1CNCCO1 [Compound Y-082, (S)-Methyl 6-(5-cyanopyrazin-2-ylamino)-4-(2-(morpholin-2-yl)ethylamino)nicotinate] | ≤ 100 nM
COC(=O)c1cnc(Nc2cnc(C#N)cn2)cc1NCC1(F)CCNCC1 [Compound Y-083, Methyl 6-(5-Cyanopyrazin-2-ylamino)-4-((4-fluoropiperidin-4-yl)methylamino)nicotinate] | ≤ 100 nM
COCCNC(=O)c1cnc(Nc2cnc(C#N)cn2)cc1NCC1CCNCC1 [Compound Y-084, 6-(5-Cyanopyrazin-2-ylamino)-N-(2-methoxyethyl)-4-(piperidin-4-ylmethylamino)nicotinamide] | ≤ 100 nM

Other lines, results leading:

IC50 | SMILES
≤ 100 nM | N#Cc1cnc(Nc2cc(NC[C@H]3CCCNC3)c(N)cn2)cn1 [Compound Y-047, (S)-5-(5-Amino-4-(piperidin-3-ylmethylamino)pyridin-2-ylamino)pyrazine-2-carbonitrile]
≤ 100 nM | N#Cc1cnc(Nc2cc(NC[C@@H]3CCCNC3)c(N)cn2)cn1 [Compound Y-048, (R)-5-(5-Amino-4-(piperidin-3-ylmethylamino)pyridin-2-ylamino)pyrazine-2-carbonitrile]
≤ 100 nM | N#Cc1cnc(Nc2cc(NCC3CCCNC3)c(NC(=O)CCC3CCNCC3)cn2)cn1 (stereo not shown) [Compound Y-053, N-(6-(5-Cyanopyrazin-2-ylamino)-4-(piperidin-3-ylmethylamino)pyridin-3-yl)-3-(piperidin-4-yl)propanamide]
≤ 100 nM | N#Cc1cnc(Nc2cc(NCC3CCCNC3)c(-n3cccc3)cn2)cn1 (stereo not shown) [Compound Y-056, 5-(4-(Piperidin-3-ylmethylamino)-5-(1H-pyrrol-1-yl)pyridin-2-ylamino)pyrazine-2-carbonitrile]
≤ 100 nM | CN1CCC(Nc2cc(Nc3cnc(C#N)cn3)ncc2-n2cccc2)CC1 [Compound Y-058, 5-(4-(1-Methylpiperidin-4-ylamino)-5-(1H-pyrrol-1-yl)pyridin-2-ylamino)pyrazine-2-carbonitrile]
≤ 100 nM | N#Cc1cnc(Nc2cc(NCC3CCCNC3)c(N3CCCC3)cn2)cn1 (stereo not shown) [Compound Y-059, 5-(4-(Piperidin-3-ylmethylamino)-5-(pyrrolidin-1-yl)pyridin-2-ylamino)pyrazine-2-carbonitrile]
≤ 100 nM | N#Cc1cnc(Nc2cc(NCC3CCCNC3)c(N3CC[C@H](O)C3)cn2)cn1 (stereo partly drawn) [Compound Y-060, 5-(5-((S)-3-Hydroxypyrrolidin-1-yl)-4-(piperidin-3-ylmethylamino)pyridin-2-ylamino)pyrazine-2-carbonitrile]
≤ 100 nM | N#Cc1cnc(Nc2cc(NCC3CCCNC3)c(-n3ccc(CN4CCOCC4)c3)cn2)cn1 (stereo not shown) [Compound Y-062, 5-(5-(3-(Morpholinomethyl)-1H-pyrrol-1-yl)-4-(piperidin-3-ylmethylamino)pyridin-2-ylamino)pyrazine-2-carbonitrile]
≤ 100 nM | N#Cc1cnc(Nc2cc(NCC3CCCNC3)c(-n3ccc(CO)c3)cn2)cn1 (stereo not shown) [Compound Y-063, 5-(5-(3-(Hydroxymethyl)-1H-pyrrol-1-yl)-4-(piperidin-3-ylmethylamino)pyridin-2-ylamino)pyrazine-2-carbonitrile]
≤ 100 nM | CCOC(=O)c1ccn(-c2cnc(Nc3cnc(C#N)cn3)cc2NCC2CCCNC2)c1 (stereo not shown) [Compound Y-064, Ethyl 1-(6-(5-cyanopyrazin-2-ylamino)-4-(piperidin-3-ylmethylamino)pyridin-3-yl)-1H-pyrrole-3-carboxylate]
≤ 100 nM | N#Cc1cnc(Nc2cc(NCC3CCCNC3)c(-n3ccc(C(=O)NCCCO)c3)cn2)cn1 (stereo not shown) [Compound Y-067, 1-(6-(5-Cyanopyrazin-2-ylamino)-4-(piperidin-3-ylmethylamino)pyridin-3-yl)-N-(3-hydroxypropyl)-1H-pyrrole-3-carboxamide]
≤ 100 nM | COC(=O)c1cnc(Nc2cnc(C#N)cn2)cc1NCC1CCCCN1 (stereo not shown) [Compound Y-073, Methyl 6-(5-cyanopyrazin-2-ylamino)-4-(piperidin-2-ylmethylamino)-nicotinate]
≤ 100 nM | COC(=O)c1cnc(Nc2cnc(C#N)cn2)cc1NC1CCCNCC1 (stereo not shown) [Compound Y-076, Methyl 4-(azepan-4-ylamino)-6-(5-cyanopyrazin-2-ylamino)nicotinate]
≤ 100 nM | CCCN1CCC(Nc2cc(Nc3cnc(C#N)cn3)ncc2C(=O)OC)CC1 [Compound Y-077, Methyl 6-(5-cyanopyrazin-2-ylamino)-4-(1-propylpiperidin-4-ylamino)nicotinate]
